Like-named read-outs stand apart in the source and are kept apart here.
Columns and labels:
HCV replicon = HCV replicon luciferase assay; format: cell-based, Hepatitis C virus; conditions: luciferase method, read-out: EC50
Method: To prepare plates, HCV replicon cells, with or without a Renilla luciferase reporter gene, were trypsinized and placed into each well of a 96-well plate with titrated test compounds added in columns 3 through 12; columns 1 and 2 contained a control compound (HCV protease inhibitor), and the bottom row contained cells without compound. The plates were then placed in a CO2 incubator at 37 degrees C.
Assays. Subsequent to addition of the test compounds described above (FRET Assay Preparation), at various times the plate was removed and Alamar blue solution (Trek Diagnostics, #00-100) was added per well as a measure of cellular toxicity. After reading in a Cytoflour 4000 instrument (PE Biosystems), plates were rinsed with PBS and then used for FRET assay by the addition of 30 ul of the FRET peptide assay reagent described above (FRET Assay Preparation) per well. The plate was then placed into the Cytoflour 4000 instrument which had been set to 340 excite/490 emission, automatic mode for 20 cycles and the plate read in a kinetic mode. Typically, the signal to noise using an endpoint analysis after the reads was at least three-fold. Alternatively, after Alamar blue reading, plates were rinsed with PBS, 50 ul of DMEM (high glucose) without phenol red was added and plates were then used for luciferase assay using the Promega Dual-Glo Luciferase Assay System.
Compound analysis was determined by quantification of the relative HCV replicon inhibition and the relative cytotoxicity values. To calculate cytoxicity values, the average Alamar Blue fluorescence signals from the control wells were set as 100% non-toxic. The individual signals in each of the compound test wells were then divided by the average control signal and multiplied by 100% to determine […]. To calculate the HCV replicon inhibition values, an average background value was obtained from the two wells containing the highest amount of HCV protease inhibitor at the end of the assay period. These numbers were similar to those obtained from naïve Huh-7 cells.
The background numbers were then subtracted from the average signal obtained from the control wells and this number was used as 100% activity. The individual signals in each of the compound test wells were then divided by the averaged control values after background subtraction and multiplied by 100% to determine percent activity. EC50 values for a protease inhibitor titration were calculated as the concentration which caused a 50% reduction in FRET or luciferase activity. The two numbers generated for the compound plate, percent cytoxicity and percent activity were used to determine compounds of interest for further analysis.

[1] = biological target: T1, HCV NS5B RdRp genotype 1b (Hepatitis C virus genotype 1b, UniProt Q9WMX2); experiment: Standard HCV NS5B RdRp enzyme assay; format: biochemical; conditions: standard method
T1 construct: The protein was expressed with an 18 amino acid C-terminal truncation to enhance the solubility; made in house; host or cells: E. coli BL21 (DE3), pET21a
T1 sequence (Q9WMX2 2420-2992): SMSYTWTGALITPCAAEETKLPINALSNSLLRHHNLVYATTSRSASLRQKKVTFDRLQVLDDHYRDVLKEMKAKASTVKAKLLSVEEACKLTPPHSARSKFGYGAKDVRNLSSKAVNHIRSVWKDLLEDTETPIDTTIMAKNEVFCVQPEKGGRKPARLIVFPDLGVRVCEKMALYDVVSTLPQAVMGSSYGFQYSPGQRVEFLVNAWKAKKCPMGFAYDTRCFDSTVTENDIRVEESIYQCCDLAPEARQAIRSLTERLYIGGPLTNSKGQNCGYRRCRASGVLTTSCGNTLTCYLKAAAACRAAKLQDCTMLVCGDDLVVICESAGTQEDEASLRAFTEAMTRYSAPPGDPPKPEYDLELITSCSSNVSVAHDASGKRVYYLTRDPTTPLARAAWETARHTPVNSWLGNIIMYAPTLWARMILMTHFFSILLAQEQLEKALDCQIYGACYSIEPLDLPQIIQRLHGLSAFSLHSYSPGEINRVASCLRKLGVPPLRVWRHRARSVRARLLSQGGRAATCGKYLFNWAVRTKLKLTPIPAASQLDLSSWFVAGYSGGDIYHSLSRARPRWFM
Method: HCVNS5B RdRp cloning, expression, and purification. The cDNA encoding the NS5B protein of HCV, genotype 1b, was cloned into the pET21a expression vector. The protein was expressed with an 18 amino acid C-terminal truncation to enhance the solubility. The E. coli competent cell line BL21 (DE3) was used for expression of the protein. Cultures were grown at 37° C. for ˜4 hours until the cultures reached an optical density of 2.0 at 600 nm. The cultures were cooled to 20° C. and induced with 1 mM IPTG. Fresh ampicillin was added to a final concentration of 50 μg/ml and the cells were grown overnight at 20° C.
Cell pellets (3 L) were lysed for purification to yield 15-24 mgs of purified NS5B. The lysis buffer consisted of 20 mM Tris-HCl, pH 7.4, 500 mM NaCl, 0.5% triton X-100, 1 mM DTT, 1 mM EDTA, 20% glycerol, 0.5 mg/ml lysozyme, 10 mM MgCl2, 15 ug/ml deoxyribonuclease I, and Complete TM protease inhibitor tablets (Roche). After addition of the lysis buffer, frozen cell pellets were resuspended using a tissue homogenizer. To reduce the viscosity of the sample, aliquots of the lysate were sonicated on ice using a microtip attached to a Branson sonicator. The sonicated lysate was centrifuged at 100,000×g for 1 hr at 4° C. and filtered through a 0.2 μm filter unit (Corning).
The protein was purified using three sequential chromatography steps: Heparin sepharose CL-6B, polyU sepharose 4B, and Hitrap SP sepharose (Pharmacia). The chromatography buffers were identical to the lysis buffer but contained no lysozyme, deoxyribonuclease I, MgCl2 or protease inhibitor and the NaCl concentration of the buffer was adjusted according to the requirements for charging the protein onto the column. Each column was eluted with a NaCl gradient which varied in length from 5-50 column volumes depending on the column type. After the final chromatography step, the resulting purity of the enzyme is >90% based on SDS-PAGE analysis. The enzyme was aliquoted and stored at −80° C.
Standard HCV NS5B RdRp enzyme assay. HCV RdRp genotype Ib assays were run in a final volume of 60 μl in 96 well plates (Costar 3912). The assay buffer is composed of 20 mM Hepes, pH 7.5, 2.5 mM KCl, 2.5 mM MgCl2, 1 mM DTT, 1.6 U RNAse inhibitor (Promega N2515), 0.1 mg/ml BSA (Promega R3961), and 2% glycerol. All compounds were serially diluted (3-fold) in DMSO and diluted further in water such that the final concentration of DMSO in the assay was 2%. HCV RdRp genotype 1b enzyme was used at a final concentration of 28 nM. A polyA template was used at 6 nM, and a biotinylated oligo-dT12 primer was used at 180 nM final concentration. Template was obtained commercially (Amersham 27-4110). Biotinylated primer was prepared by Sigma Genosys. ^3H-UTP was used at 0.6 μCi (0.29 μM total UTP). Reactions were initiated by the addition of enzyme, incubated at 30° C. for 60 min, and stopped by adding 25 μl of 50 mM EDTA containing SPA beads (4 μg/μl, Amersham RPNQ 0007). Plates were read on a Packard Top Count NXT after >1 hr incubation at room temperature.
The IC50 values for compounds were determined using seven different [I]. IC50 values were calculated from the inhibition using the formula y=A+((B−A)/(1+((C/x)^D))). FRET Assay Preparation. To perform the HCV FRET screening assay, 96-well cell culture plates were used. The FRET peptide (Anaspec, Inc.) (Taliani et al., Anal. Biochem. 240:60-67 (1996), hereby incorporated by reference in its entirety) contains a fluorescence donor, EDANS, near one end of the peptide and an acceptor, DABCYL, near the other end. The fluorescence of the peptide is quenched by […] resonance energy transfer (RET) between the donor and the acceptor, but as the NS3 protease cleaves the peptide the products are released from RET quenching and the fluorescence of the donor becomes apparent. […]

| Compound | EC50 (HCV replicon; Hepatitis C virus) [µM] | IC50 [1] [µM] | EC50 (HCV replicon) [µM] |
| --- | --- | --- | --- |
| CN(C)S(=O)(=O)NC(=O)c1ccc2c(C3CCCCC3)c3n(c2c1)CC(C(=O)N1CCOCC1)Cc1ccccc1-3 (stereo not drawn) | < 0.1 | 0.1 to 1 | – |
| O=C(O)c1ccc2c(C3CCCCC3)c3n(c2c1)CCCc1ncccc1-3 | 0.1 to 1 | 0.1 to 1 | – |
| O=C(O)c1ccc2c(C3CCCCC3)c3n(c2c1)CCCc1ccccc1-3 [Example 3, 13-cyclohexyl-6,7-dihydro-5H-indolo[2,1-a][2]benzazepine-10-carboxylic acid] | 0.1 to 1 | 0.1 to 1 | – |
| O=C(O)c1ccc2c(C3CCCCC3)c3n(c2c1)CC=Cc1ccccc1-3 [Example 18, 13-cyclohexyl-7H-indolo[2,1-a][2]benzazepine-10-carboxylic acid] | 1 to 10 | > 1 | – |
| COC(=O)c1ccc2c(C3CCCCC3)c3n(c2c1)C(O)c1ccccc1-3 (stereo not drawn) [Example 8] | 1 to 10 | > 1 | – |
| CCOC(=O)c1cc2ccccc2c2c(C3CCCCC3)c3ccc(C(=O)OC)cc3n12 [Example 16, 6-ethyl-9-methyl-12-cyclohexyl-indolo[2,1-a]isoquinoline-6,9-dicarboxylic acid] | > 10 | > 1 | – |
| CN(C)CCNC(=O)C1Cc2ccccc2-c2c(C3CCCCC3)c3ccc(C(=O)NS(=O)(=O)N(C)C)cc3n2C1 (stereo not drawn) | 0.1 to 1 | 0.1 to 1 | – |
| O=C(O)c1ccc2c(C3CCCCC3)c3n(c2c1)CCCc1occc1-3 | 1 to 10 | > 1 | – |
| O=C1Cn2c(c(C3CCCCC3)c3ccc(C(=O)O)cc32)-c2ccccc2N1 [Example 21, 13-cyclohexyl-6,7-dihydro-6-oxo-5H-indolo[1,2-d][1,4]benzodiazepine-10-carboxylic acid] | 0.1 to 1 | 0.1 to 1 | – |
| COC(=O)c1ccc2c(C3CCCCC3)c3n(c2c1)CCCc1ccccc1-3 [Example 2, Methyl 13-cyclohexyl-6,7-dihydro-5H-indolo[2,1-a][2]benzazepine-10-carboxylate] | > 10 | > 1 | – |
| O=C(O)c1ccc2c(C3CCCCC3)c3n(c2c1)CC(C(=O)N1CCOCC1)Cc1ccccc1-3 (stereo not drawn) [drawing 113] | – | 0.1 to 1 | 0.1 to 1 |
| O=C(O)c1ccc2c(C3CCCCC3)c3n(c2c1)C(O)c1ccccc1-3 (stereo not drawn) | > 10 | > 1 | – |
| O=C(O)c1ccc2c(C3CCCCC3)c3n(c2c1)CC(C(=O)N1CCCC(O)C1)Cc1ccccc1-3 (stereo not drawn) [drawing 119] | – | 0.1 to 1 | 0.1 to 1 |
| O=C(O)c1ccc2c(C3CCCCC3)c3n(c2c1)CC(C(=O)N1CCN(c2ccncc2)CC1)=Cc1ccccc1-3 | 0.1 to 1 | 0.1 to 1 | – |
| O=C(O)/C=C/c1ccc(NC(=O)C2(NC(=O)c3ccc4c(C5CCCCC5)c5n(c4c3)CCCc3ncccc3-5)CCCC2)cc1 | < 0.1 | 0.1 to 1 | – |
| O=C(O)c1ccc(-c2nc(C3(NC(=O)c4ccc5c(C6CCCCC6)c6n(c5c4)CC=Cc4ccccc4-6)CCCC3)no2)cc1 [Example 24] | 0.1 to 1 | > 1 | – |
| O=C(O)c1ccc2c(C3CCCCC3)c3n(c2c1)CC(C(=O)NCCO)Cc1ccccc1-3 (stereo not drawn) | 0.1 to 1 | 0.1 to 1 | – |

| Compound | EC50 (HCV replicon; Hepatitis C virus) [µM] | IC50 [1] [µM] | EC50 (HCV replicon) [µM] |
| --- | --- | --- | --- |
| O=C(O)c1ccc2c(C3CCCCC3)c3n(c2c1)CCCCNc1ccccc1-3 | 0.1 to 1 | > 1 | – |
| CC(C)(C)OC(=O)N1/C=C\CCn2c(c(C3CCCCC3)c3ccc(C(=O)O)cc32)-c2ccccc21 | 1 to 10 | > 1 | – |
| NC(=O)C1Cc2ccccc2-c2c(C3CCCCC3)c3ccc(C(=O)O)cc3n2C1 (stereo not drawn) | 0.1 to 1 | 0.1 to 1 | – |
| O=C(O)c1ccc2c(C3CCCCC3)c3c4ccccc4cc(C(=O)O)n3c2c1 | > 10 | > 1 | – |
| COC(=O)c1ccc2c(C3CCCCC3)c3n(c2c1)Cc1ccccc1-3 [Example 6, Methyl 11-cyclohexyl-6H-isoindolo[2,1-a]indole-3-carboxylate] | > 10 | > 1 | – |
| COC(=O)/C=C/c1ccc(NC(=O)C2(NC(=O)c3ccc4c(C5CCCCC5)c5n(c4c3)CCOc3cccnc3-5)CCCC2)cc1 | 0.1 to 1 | > 1 | – |
| O=C(O)c1ccc2c(C3CCCCC3)c3n(c2c1)CC(C(=O)N1CCCCC1)Cc1ccccc1-3 (stereo not drawn) [drawing 117] | – | > 1 | 1 to 10 |
| O=C(O)c1ccc2c(C3CCCCC3)c3n(c2c1)CC=Cc1cc(OCc2ccccc2)ccc1-3 | 0.1 to 1 | > 1 | – |
| CN(C)C(=O)C1Cc2ccccc2-c2c(C3CCCCC3)c3ccc(C(=O)O)cc3n2C1 (stereo not drawn) | 0.1 to 1 | 0.1 to 1 | – |
| CN1C(=O)Cn2c(c(C3CCCCC3)c3ccc(C(=O)O)cc32)-c2ccccc21 [Example 22, 13-cyclohexyl-6,7-dihydro-6-oxo-5-methyl-5H-indolo[1,2-d][1,4]benzodiazepine-10-carboxylic acid] | 0.1 to 1 | 0.1 to 1 | – |
| CN(C)S(=O)(=O)NC(=O)c1ccc2c(C3CCCCC3)c3n(c2c1)CC(C(=O)N1CCCC(O)C1)Cc1ccccc1-3 (stereo not drawn) | 0.1 to 1 | 0.1 to 1 | – |
| O=C1Cn2c(c(C3CCCCC3)c3ccc(C(=O)O)cc32)-c2ncccc2N1 [Example 15, 13-cyclohexyl-6,7-dihydro-6-oxo-5H-pyrido[3′,2′:5,6][1,4]diazepino[1,7-a]indole-10-carboxylic acid] | 1 to 10 | 0.1 to 1 | – |
| O=C(O)c1ccc2c(C3CCCCC3)c3n(c2c1)CC(C(=O)N1CCN(c2ccncc2)CC1)Cc1ccccc1-3 (stereo not drawn) | 0.1 to 1 | 0.1 to 1 | – |
| COC(=O)/C=C/c1ccc(NC(=O)C2(NC(=O)c3ccc4c(C5CCCCC5)c5n(c4c3)CC(=O)Nc3cccnc3-5)CCCC2)cc1 [drawing 98] | < 0.1 | > 1 | – |
| O=C(O)c1ccc2c(C3CCCCC3)c3n(c2c1)CC=Cc1ncccc1-3 | 1 to 10 | > 1 | – |
| O=C(O)/C=C/c1ccc(NC(=O)C2(NC(=O)c3ccc4c(C5CCCCC5)c5n(c4c3)CC=Cc3ccccc3-5)CCCC2)cc1 | < 0.1 | 0.1 to 1 | – |
